The test system of one assay is MC38 cells. The assay can be described thus: Cell cycle analysis of MC38 cells by propidium iodide staining (flow cytometry). Format: cell-based, mouse. The settings on record: 48-hour stimulation; BW-723C86 50 μM, SB-215505 50 μM per FIG. 6 legend. As to the method: FIG. 6 depicts that 5-HTR2B signalling in colon cancer affects cell proliferation and viability: Colon cancer MC38 cells were treated with serotonin (100 μM), 5-HTR2B agonist (BW-723C86; 50 μM), or 5-HTR2B antagonist (SB-215505; 50 μM) for 48 hours, and cell cycle analysis was performed by propidium iodide staining using flow cytometry. MC38 cells were also treated with a graded dose of 5-HTR2B agonist (BW-723C86) or serotonin. MTT assay was performed to measure cell viability. (A) After treatment with 5-HTR2B agonist BW-723C86, serotonin, or 5-HTR2B antagonist SB-215505, the relative cell cycle analysis is shown. (B) Relative cell viability data of MC38 cells following treatment of graded doses of 5-HTR2B agonist BW-723C86 or serotonin are shown. The data shown are representative of one of the three independent experiments. (C) MC38 tumor sections from the control tumor and 5-HTR2B antagonist treated tumor were stained for CD31 and the number of CD31^+ micro-blood vessels/mm^2 of tissue sections was counted and plotted to observe angiogenesis. Error bar represents ±standard error of the mean (SEM).
MC38 cells were seeded in 6 well plates at a density of 5×10^4 cells/well. Cells were allowed to accommodate in the environment for 24 hours. The treatment with 5-HTR2B agonist (BW-723C86), Serotonin, and 5-HTR2B antagonist (RS-127445) was performed at different time points. […]
On the technique in general: In flow cytometry, cells or beads pass a laser one at a time.

In another assay the test system is MC38 tumor. The assay can be described thus: Adoptive transfer of lymph node cells into NRG mice bearing MC38 and B16F10 tumors: MC38 flank. Format: in vivo. Conditions: donor mice treated 10 days; tumor-draining lymph node cells; MC38 flank (FIG. 11B). On the procedure: FIG. 11 depicts the effect of 5-HTR antagonists on the antigen-specific CTL response MC38 tumor model in mice: (A) Representative experimental plan of the adoptive transfer experiment where NRG mice. In brief, NRG mice were inoculated with MC38 on one flank and B16F10 cells on the other. These mice received total lymph node cells from naïve C57BL/6J mice or MC38 tumor-bearing control or RS-127445 treated mice. (B) Tumor volume data from the above-described experiment was measured and plotted (C) Immunocytochemistry data showing expression of H2-Kb-[…]^+ (red) on MC38 cells transfected with pCL-neo-OVA plasmid on the right side and MC38 cells without transfection. DAPI is used as a counterstain. (D-E) C7BL/6J mice were inoculated with an MC38-ova cell line and treated with RS-127445 or left untreated. After 10 days of such treatment, Total lymph node cells were harvested tagged with CFSE, and cultured in the presence of ovalbumin protein (50 μg/ml) for 5 days. After 5 days cells were checked for CFSE expression by flow cytometry to check proliferation. Here is the data (D) showing the CFSE in CD8^+ cells. The statistical data of the total percentage of CFSE^− CD8 T cells corresponding with the percentage of proliferated CD8 T cells were plotted. […]

`CC(N)Cc1c[nH]c2ccc(OCc3cccs3)cc12` (centres unmarked) [BW-723C86]: the “percentage of MC38 cells in the S phase of the cell cycle” value with MC38 cells is listed as “increased percentage of cells in the S phase”.

`CC(C)c1cc(-c2ccc(F)c3ccccc23)nc(N)n1` [RS-127445]: the “MC38 tumor growth after transfer of antagonist primed total immune cells” value in the assay on MC38 tumor is “able to control MC38 tumor growth”.

The record behind these values is US20240408071A1, “NOVEL COMBINATION OF SEROTONIN RECEPTOR (5-HTR2B) ANTAGONIST AND AN IMMUNOMODULATOR AND CHEMOTHERAPEUTIC DRUGS FOR INHIBITION OF CANCER” (NATIONAL CENTRE FOR CELL SCIENCE, priority 2021, published 2024).
